Laboratory results as given in patent US20120039981A1, “Chewing Gum And Particulate Material For Controlled Release Of Active Ingredients” (priority 2009, published 2012).
Read-outs that look alike come from different tables or passages of the source.

Excerpt: Absorption of nicotine from the oral cavity to the systemic circulation is dependent on the pH of the saliva and the […] of nicotine, which is about 7.8. Assuming a pH of the saliva of 6.8 only about 10% of the nicotine in saliva will be in the free base form. Thus, in order to promote absorption of nicotine in a free base form, which is the form predomi-nantly absorbed through the mucosa, the pH of the saliva must be increased. At a pH of 8.8 about 90% of the nicotine in saliva will then be in the free base form.

Structure (SMILES): CN1CCCC1c1cccnc1 (centres unmarked) [nicotine, 3-(1-methyl-2-pyrrolidinyl)-pyridine]
- nicotine in saliva in the free base form (saliva pH 6.8): about 10%
- nicotine in saliva in the free base form (saliva pH 8.8): about 90%
